Literature values as cited in patent US20220168121A1, “FIBROSIS-INDUCING DRUG-ELUTING STENT FOR BLOCKING ELECTRIC CONDUCTION” (SUNGKWANG MEDICAL FOUNDATION, priority 2019, published 2022).
Where a name gives a salt, the structure may show the parent alone.

| water solubility | stability in a solid state (solid state) | Structure (SMILES) |
| --- | --- | --- |
| water soluble | unstable properties in a solid state | CCCCC(CC)CCC(CC(C)C)OS(=O)(=O)O (stereo not drawn) [sodium tetradecyl sulfate] |
| water insoluble | – | CCCCCCCCCCCCCCOS(=O)(=O)O [sodium tetradecyl sulfate] |
